Where two headings read alike, the source gives them in different places. Square brackets hold non-standard residues; d marks the D form. Ends that are not written are not given here. Peptide text beside a SMILES is read from it. * marks the point of attachment. Biotin = O=C1N[C@H]2[C@H](CS[C@H]2CCCCC(=O)*)N1; pY = N[C@@H](Cc1ccc(OP(=O)(O)O)cc1)C(=O)O; pS = N[C@@H](COP(=O)(O)O)C(=O)O
Experiments:
radixin FERM domain = target: T1, radixin FERM domain (Mus musculus, UniProt P26043); assay: Surface plasmon resonance, radixin FERM domain injected over immobilized peptides; assay type: binding; conditions: 37°; for Kd: equilibrium binding; for Binding of radixin FERM domain (in words): non-phosphorylated peptides, Fig. 1a, b
T1 construct: mouse cDNA encoding amino acid residues 1–310, which are 100% identical between mouse and human; GST (cleaved yes); made in house; host or cells: E. coli Rosetta (DE3) pLysS
T1 sequence (P26043 1-310): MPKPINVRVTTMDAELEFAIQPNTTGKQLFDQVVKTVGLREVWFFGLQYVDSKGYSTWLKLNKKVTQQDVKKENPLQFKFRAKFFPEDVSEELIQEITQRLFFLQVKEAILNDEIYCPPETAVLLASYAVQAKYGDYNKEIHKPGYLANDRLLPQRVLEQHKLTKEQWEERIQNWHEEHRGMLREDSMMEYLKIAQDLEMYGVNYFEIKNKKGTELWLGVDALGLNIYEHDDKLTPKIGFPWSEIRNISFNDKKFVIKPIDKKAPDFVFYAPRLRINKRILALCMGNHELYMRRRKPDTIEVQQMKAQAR
Excerpt: (§1) Peptides representing human sequences and biotinylated at the N terminus were obtained from Peptide Protein Research Ltd (Hampshire, UK): CD5 pSDpSDpY, PDNSpSDpSDpYDLHGAQRL; CD5 SDSDY, PDNSSDSDYDLHGAQRL, CD6 pSDpSDpY, GpSDpSDpYEHYDFSAQ; CD6 SDSDY: GSDSDYEHYDFSAQ; control peptide (CD5), HVDNEYSQPPRNS; ICAM‐2 (NP_001093259 FERM binding site (amino acids 251–275): […].16
Recombinant GST‐tagged FERM domain of radixin constructed from mouse cDNA encoding amino acid residues 1–310, which are 100% identical between mouse and human in the pET49b(+) vector was kindly provided by Toshio Hakoshima (Nara Institute of Science and Technology, Japan).16 Radixin FERM was expressed in Rosetta (DE3) pLysS competent cells (Novagen, Madison, WI) and affinity purified using Glutathione Sepharose 4B (GE Healthcare, Chicago, IL). The GST tag was cleaved with HRV 3C protease (Novagen). Cleaved radixin FERM domains were then further purified using size exclusion chromatography.
For surface plasmon resonance analysis, CD5 pSDpSDpY, CD5 SDSDY, CD6 pSDpSDpY and CD6 SDSDY and ICAM‐2 peptides were immobilized on streptavidin‐coated CM5 chips in a BIAcore 3000 machine. Radixin FERM was injected over the immobilized peptides at 37°. Background signals of radixin FERM over a streptavidin‐coated flow cell were subtracted and equilibrium binding data were fitted using a 1 : 1 Langmuir binding model using GRAPHPAD PRISM 7 software.

[1] = test system: ERM proteins and NHE‐RF 1 and 2; assay: Pulldown from Jurkat T-cell lysates with immobilized peptides and mass spectrometry: five ERM and NHE-RF proteins together; assay type: binding
Excerpt: as §1
Pulldowns and mass spectrometry have been described elsewhere.6 Briefly, peptides CD5 pSDpSDpY, CD6 pSDpSDpY or a control peptide derived from a region around a more proximal cytoplasmic tyrosine of CD5 were immobilized on magnetic beads and used to isolate interacting proteins from Jurkat T‐cell lysates. Interacting proteins were processed, then digested on a filter, and the peptides were loaded onto the Ultimate 300 RSLCnano high‐performance liquid chromatography (Dionex, Sunnyvale, CA) ‐tandem mass spectrometry Q Exactive Orbitrap machine using a 25 cm by 75 μm inner diameter picotip analytical column (New Objective, Woburn, MA) in the central proteomics facilities at the Sir William Dunn School of Pathology, University of Oxford. Spectra analysis was conducted using the MASCOT search engine.17

[2] = target: T2, radixin FERM domain (amino acid residues 1-310) (mouse, UniProt P26043 1-310); assay: SPR; biotinylated peptides immobilized on streptavidin-coated CM5 chips, BIAcore 3000; radixin FERM injected at 37°; streptavidin flow cell subtracted; equilibrium binding fitted with a 1:1 Langmuir model; conditions: both partners purified
T2 construct: also called Recombinant monomeric radixin FERM; FERM domain of radixin; source: E. coli Rosetta (DE3) pLysS, purified (Glutathione Sepharose 4B, HRV 3C cleavage, size exclusion chromatography)
T2 sequence (P26043 1-310): as above

[3] = SPR BIAcore 3000, biotinylated peptides on streptavidin-coated CM5 chip, 1:1 Langmuir fit, CD5 and CD6: three experiments, read-out: KD

Q: CSCC[C@H](NC(=O)[C@H](CCCNC(=N)N)NC(=O)[C@H](CCC(N)=O)NC(=O)[C@H](CCC(N)=O)NC(=O)[C@H](CCCNC(=N)N)NC(=O)[C@H](CC(C)C)NC(=O)[C@H](Cc1c[nH]cn1)NC(=O)CCCC[C@@H]1SC[C@@H]2NC(=O)N[C@@H]21)C(=O)NCC(=O)N[C@H](C(=O)N[C@@H](Cc1ccc(O)cc1)C(=O)NCC(=O)N[C@H](C(=O)N[C@@H](CCCNC(=N)N)C(=O)N[C@@H](C)C(=O)N[C@@H](C)C(=O)N[C@@H](Cc1c[nH]c2ccccc12)C(=O)N[C@@H](CCCNC(=N)N)C(=O)N[C@@H](CCCNC(=N)N)C(=O)N[C@@H](CC(C)C)C(=O)N1CCC[C@H]1C(=O)N[C@@H](CCC(N)=O)C(=O)N[C@@H](C)C(=O)N[C@@H](Cc1ccccc1)C(=O)N[C@@H](CCCNC(=N)N)C(=O)N1CCC[C@H]1C(=O)O)C(C)C)[C@@H](C)O [ICAM-2, reference compound] (Biotin-HLRQQRMGTYGVRAAWRRLPQAFRP-OH; N-terminus and C-terminus assumed) was tested. Which Kd (radixin FERM domain; [3]) did it give?
A: The Kd was no less than 200 nM.

Q: Which “Binding of radixin FERM domain (in words)” value (radixin FERM domain; SPR) does the source give for GSDSDYEHYDFSAQ [CD6 SDSDY] here?
A: The value was “weak and did not reach saturation”.

Q: Which Kd (radixin FERM domain; [3]) does the source give for CC(C)C[C@H](NC(=O)[C@H](CCCNC(=N)N)NC(=O)[C@H](CCC(N)=O)NC(=O)[C@H](C)NC(=O)CNC(=O)[C@H](Cc1c[nH]cn1)NC(=O)[C@H](CC(C)C)NC(=O)[C@H](CC(=O)O)NC(=O)[C@H](Cc1ccc(OP(=O)(O)O)cc1)NC(=O)[C@H](CC(=O)O)NC(=O)[C@H](COP(=O)(O)O)NC(=O)[C@H](CC(=O)O)NC(=O)[C@H](COP(=O)(O)O)NC(=O)[C@H](CO)NC(=O)[C@H](CC(N)=O)NC(=O)[C@H](CC(=O)O)NC(=O)[C@@H]1CCCN1)C(=O)O [CD5 pSDpSDpY] (H-PDNS[pS]D[pS]D[pY]DLHGAQRL-OH) here?
A: The Kd was 1000 to 2000 nM.

Q: And the Kd (radixin FERM domain; SPR, Fig. 1 panel c, peptides compared with ICAM-2, read-out: KD (Fig. 1c))?
A: Its Kd is 1000 nM.

Q: For “HVDNEYSQPPRNS [control peptide, control peptide derived from a region around a more proximal cytoplasmic tyrosine of CD5]”, which “Isolation of the five proteins (in words)” value [1] is on record?
A: The value was “not identified”.

Q: With PDNSSDSDYDLHGAQRL [CD5 SDSDY] as the molecule, how does the “Binding of radixin FERM domain (in words)” value (radixin FERM domain; SPR) read?
A: The value was “weak and did not reach saturation”.

Q: C[C@H](NC(=O)[C@H](CO)NC(=O)[C@H](Cc1ccccc1)NC(=O)[C@H](CC(=O)O)NC(=O)[C@H](Cc1ccc(O)cc1)NC(=O)[C@H](Cc1c[nH]cn1)NC(=O)[C@H](CCC(=O)O)NC(=O)[C@H](Cc1ccc(OP(=O)(O)O)cc1)NC(=O)[C@H](CC(=O)O)NC(=O)[C@H](COP(=O)(O)O)NC(=O)[C@H](CC(=O)O)NC(=O)[C@H](COP(=O)(O)O)NC(=O)CN)C(=O)N[C@@H](CCC(N)=O)C(=O)O [CD6 pSDpSDpY] (H-G[pS]D[pS]D[pY]EHYDFSAQ-OH) was tested. Which Kd (radixin FERM domain; [3]) did it give?
A: The Kd was 500 nM.

B1: CD6 pSDpSDpY peptide (peptide)
peptide: Biotin-G[pS]D[pS]D[pY]EHYDFSAQ
notes: also called phosphorylated CD6 SDSDY peptide; source: synthetic peptide; bought: Peptide Protein Research Ltd
Q: How did the Kd [2] turn out when B1 was run?
A: The Kd was 500 to 2000 nM.

From article PMC6376265, “A sequence conserved between CD5 and CD6 binds an FERM domain and exerts a restraint on T‐cell activation” (Immunology, 2018)
